Where a SMILES comes first, the peptide text is derived from it. The star is where a group is joined. NHtBu = CC(C)(C)N*
**Q.** Which logP does the source give for `CCOc1ccccc1NC(=O)OCCN1CCOCC1` here?
**A.** 2.27

**Q.** For `O=C(NCO)c1c(I)c(C(=O)NCCO)c(I)c(N(CC(O)CO)C(=O)C(O)CO)c1I` (stereo not given), which logP is on record?
**A.** -2.65

**Q.** With `COc1ccc(Cc2cccc(-c3c(O)c4ccc(Cl)cc4[nH]c3=O)c2)cc1` as the molecule, how does the logP read?
**A.** 4.8

**Q.** Which logP does the source give for `CC(C)CCNC(=O)C1(O)C(C)CC2C3CCC4=CC(=O)C=CC4(C)C3(F)C(O)CC21C` (stereo not given) here?
**A.** 3.74

**Q.** With `COCC(O)Cn1c(C)cnc1[N+](=O)[O-]` (stereo not given) as the molecule, how does the logP read?
**A.** 0.03

**Q.** With `O=[N+]([O-])c1nccn1CCN1CCCCC1` as the molecule, how does the logP read?
**A.** 0.36

**Q.** For `CS(=O)(=O)c1ccc2ccccc2c1`, which logP is on record?
**A.** 1.74

**Q.** For `CCN1C(=O)C(=O)c2ccc(OC)cc2C1=O`, which logP is on record?
**A.** 1.49

**Q.** Which logP does the source give for `c1ccc(OCc2cccc(CN3CCCOC3)c2)cc1` here?
**A.** 2.75

**Q.** Which logP does the source give for `COc1ccc2[nH]c3c(c2c1)CCNc1cc(Cl)ccc1-3` here?
**A.** 4.24

**Q.** For `O=C(Cn1cnnn1)N[C@@H]1C(=O)N2C(C(=O)O)=C(CSc3nncs3)CS[C@H]12`, which logP is on record?
**A.** -0.67

**Q.** For `COP(=O)(OC)O/C(C)=C/C(=O)OC(C)c1ccccc1` (stereo not given), which logP is on record?
**A.** 3.3

**Q.** Which logP does the source give for `C#CCOc1c(Cl)cc(NC=NOCC(=O)OCC)cc1Cl` here?
**A.** 3.6

**Q.** With `O=c1[nH]c2ccccc2n1C1CCN(CC(O)C2COc3ccccc3O2)CC1` (stereo not given) as the molecule, how does the logP read?
**A.** 3.43

**Q.** With `CCCCC(=O)OC(C(=O)NC1C(=O)N2C(C(=O)O)=C(C)CSC12)c1ccccc1` (stereo not given) as the molecule, how does the logP read?
**A.** 2.23

**Q.** For `CCN1C(=O)C(=O)c2cc3ccccc3cc2C1=O`, which logP is on record?
**A.** 2.47

**Q.** With `COc1cc(OCc2ccccc2CCCN2CCC(O)CC2)cc(OC)c1OC` as the molecule, how does the logP read?
**A.** 2.6

**Q.** Which logP does the source give for `Cc1nnc(SCC2=C(C(=O)OCOC(=O)C(C)(C)C)N3C(=O)C(NC(=O)Cn4cnnn4)C3SC2)s1` (stereo not given) here?
**A.** 1.34

**Q.** For `O=c1nc(N=CN2CCCC2)ccn1C1OC(CO)C(O)C1O` (stereo not given), which logP is on record?
**A.** -1.15

**Q.** For `CCN(CC)CCSC(=NO)c1nonc1C`, which logP is on record?
**A.** 1.4

**Q.** Which logP does the source give for `O=C(O)C[N+]1([O-])CCN(C(=O)Cn2c(=O)sc3ccc(Cl)cc32)CC1` here?
**A.** 0.21

**Q.** Which logP does the source give for `CC(=O)OCN1C(=O)C2=C(CCCC2)C1=O` here?
**A.** 1.15

**Q.** With `COCCCNC(=O)C(F)(F)Cn1cnc([N+](=O)[O-])n1` as the molecule, how does the logP read?
**A.** 0.01

**Q.** Which logP does the source give for `C[Si](C)(C)C` here?
**A.** 3.24

**Q.** With `O=c1[nH]nc(SCc2ccccc2)[nH]1` as the molecule, how does the logP read?
**A.** 1.47

**Q.** For `Cc1ccc(NN=C(C#N)C#N)c([N+](=O)[O-])c1`, which logP is on record?
**A.** 2.5

**Q.** For `CCCCOC(=O)NCCn1c([N+](=O)[O-])cnc1C`, which logP is on record?
**A.** 1.22

**Q.** For `Clc1ccc(Cl)c(-c2c(Cl)ccc(Cl)c2Cl)c1Cl`, which logP is on record?
**A.** 7.12

**Q.** For `CN(C)C(=O)COC(=O)c1cc(S(N)(=O)=O)c(Cl)cc1NCc1ccco1`, which logP is on record?
**A.** 1.18

**Q.** For `NC(CCc1ccccc1)C(=O)O` (stereo not given), which logP is on record?
**A.** -1.2

**Q.** For `CCC(C)C(=O)OC1CCC=C2C=CC(C)C(CCC(O)CC(O)CC(=O)O)C21` (stereo not given), which logP is on record?
**A.** 3.6

**Q.** With `O=C(NC(CO)C(O)c1ccc(-c2ccccn2)cc1)C(F)(F)F` (stereo not given) as the molecule, how does the logP read?
**A.** 1.31

**Q.** For `CC(=O)N[C@@H](CO)C(=O)N[C@H](C(N)=O)C(C)C` (Ac-Ser-Val-NH2), which logP is on record?
**A.** -1.53

**Q.** With `C=CCn1cccn1` as the molecule, how does the logP read?
**A.** 0.35

**Q.** For `Cc1ccccc1NN=C(C#N)C#N`, which logP is on record?
**A.** 2.38

**Q.** With `O=[N+]([O-])C=C1SCCN1Cc1ccc(Cl)nc1` as the molecule, how does the logP read?
**A.** 0.65

**Q.** Which logP does the source give for `CN(C)N=Nc1ccc2oc3ccccc3c2c1` here?
**A.** 4.55

**Q.** With `Cc1c(Cl)cccc1Cl` as the molecule, how does the logP read?
**A.** 3.99

**Q.** For `CC(CCC(N)=O)n1nnc2ccccc21` (stereo not given), which logP is on record?
**A.** 1.15

**Q.** Which logP does the source give for `CC(C)N1C(=O)C(=O)c2ccccc2C1=O` here?
**A.** 1.6

**Q.** Which logP does the source give for `CC(=O)OC1C(=O)C2(C)C(O)CC3OCC3(OC(C)=O)C2C(OC(=O)c2ccccc2)C2(O)CC(OC(=O)C(O)CNC(=O)c3ccccc3)C(C)=C1C2(C)C` (stereo not given) here?
**A.** 1.75

**Q.** For `C#CCOc1c(Cl)cc(NC=NO)cc1Cl`, which logP is on record?
**A.** 2.8

**Q.** Which logP does the source give for `COCCCNC(=S)Cn1cnc([N+](=O)[O-])n1` here?
**A.** 0.63

**Q.** For `NC(COCc1cccnc1)C(=O)O` (stereo not given), which logP is on record?
**A.** -2.44

**Q.** Which logP does the source give for `Cn1nnnc1SCC1=C(C(=O)OCOC(=O)C(C)(C)C)N2C(=O)C(NC(=O)Cc3csc(N)n3)C2SC1` (stereo not given) here?
**A.** 1.36

**Q.** For `Nc1ncnc2c1nc(F)n2C1CCC(CO)O1` (stereo not given), which logP is on record?
**A.** -0.03

**Q.** With `N#CC(C#N)=NNc1ccccc1Cl` as the molecule, how does the logP read?
**A.** 3.12

**Q.** With `CCCCCOC(=O)C(C(=O)OCCCCC)=C1SCCS1` as the molecule, how does the logP read?
**A.** 5.6

**Q.** For `CCOC(=O)C(NC(=O)CCCCSc1[nH]cnc2ncnc1-2)c1ccccc1` (stereo not given), which logP is on record?
**A.** 1.13

**Q.** For `O=C(Cn1ccnc1[N+](=O)[O-])NCCCCO`, which logP is on record?
**A.** -0.74

**Q.** For `N#CN=C1NCCN1Cc1cccnc1`, which logP is on record?
**A.** 0.77

**Q.** With `Cn1c([N+](=O)[O-])cnc1COc1ccc(Cl)cc1` as the molecule, how does the logP read?
**A.** 1.8

**Q.** For `CCc1nc(C)c([N+](=O)[O-])[nH]1`, which logP is on record?
**A.** 0.76

**Q.** For `NS(=O)(=O)c1cc(S(=O)(=O)c2ccc(CN3CCOCC3)cc2)cs1`, which logP is on record?
**A.** 0.98

**Q.** For `O=C(CCn1ccnc1[N+](=O)[O-])NCCO`, which logP is on record?
**A.** -1.08

**Q.** For `Cc1cccc(OC(C)C(=O)NNC(C)C)c1` (stereo not given), which logP is on record?
**A.** 1.88

**Q.** For `COCc1ccc(O)c2ncccc12`, which logP is on record?
**A.** 1.78

**Q.** For `O=c1[nH]c(Nc2ccccc2)nc2c1ncn2C1CC(O)C(CO)O1` (stereo not given), which logP is on record?
**A.** 0.4

**Q.** For `COc1ccc2cc(C(C)C(=O)OCC(=O)N(C)C)ccc2c1` (stereo not given), which logP is on record?
**A.** 2.05

**Q.** For `CC1(C)SC2C(NC(=O)c3c(-c4c(F)cccc4Cl)noc3CO)C(=O)N2C1C(=O)O` (stereo not given), which logP is on record?
**A.** 2.23

**Q.** For `CCCCOc1ccc(OCC(OC(=O)n2ccnc2)C(C)(C)C)cc1` (stereo not given), which logP is on record?
**A.** 4.29

**Q.** With `CCOC(=S)NCCn1c([N+](=O)[O-])cnc1C` as the molecule, how does the logP read?
**A.** 1.5

**Q.** Which logP does the source give for `O=C(NCCCO)C(F)(F)Cn1ccnc1[N+](=O)[O-]` here?
**A.** -0.64

**Q.** Which logP does the source give for `ClC1CC(Cl)C(Cl)CC1Cl` (stereo not given) here?
**A.** 2.82

**Q.** With `CC(=O)NC(C)C(=O)NC(CCC(=O)O)C(=O)NC(C)C(=O)NC(C)(C)C` (stereo not drawn) (Ac-Ala-Glu-Ala-NHtBu; configuration not given here) as the molecule, how does the logP read?
**A.** -0.67

**Q.** For `c1ccc([C@H]2CN3CCSC3=N2)cc1`, which logP is on record?
**A.** 1.84

**Q.** Which logP does the source give for `Cc1ccc2c(=O)[nH]c(=O)[nH]c2c1` here?
**A.** 0.55

**Q.** Which logP does the source give for `CCNc1nc(SC)nc(C(Cl)(Cl)Cl)n1` here?
**A.** 3.87

**Q.** Which logP does the source give for `Clc1ccc(Cl)c(-c2cccc(Cl)c2Cl)c1` here?
**A.** 5.81

**Q.** With `OCC1COC(Cn2cncn2)(c2ccc(Cl)cc2Cl)O1` (stereo not given) as the molecule, how does the logP read?
**A.** 1.76

**Q.** Which logP does the source give for `CC(C)(C)C(=O)C(C#N)=NNc1cc(C(F)(F)F)ccc1Cl` here?
**A.** 5.31

**Q.** With `COc1cc(C)c2c(c1OC)-c1ccc(NCc3ccccc3)c(=O)cc1C(NC(C)=O)CC2` (stereo not given) as the molecule, how does the logP read?
**A.** 3.58

**Q.** For `O=C1CN=C(c2ccccc2)c2cc(C(F)(F)F)ccc2N1`, which logP is on record?
**A.** 3.1

**Q.** Which logP does the source give for `OCC1CC(F)C(n2cnc3c(I)ncnc32)O1` (stereo not given) here?
**A.** 0.63

**Q.** For `CC(C)CCCNC(=O)C1(O)C(C)CC2C3CCC4=CC(=O)C=CC4(C)C3(F)C(O)CC21C` (stereo not given), which logP is on record?
**A.** 3.93

**Q.** Which logP does the source give for `CCC(=O)C(CS(=O)(=O)c1ccc(C)cc1)c1ccc(C)cc1` (stereo not given) here?
**A.** 3.3

**Q.** With `CCC1COC(Cn2cncn2)(c2ccc(-n3cncn3)cc2Cl)O1` (stereo not given) as the molecule, how does the logP read?
**A.** 1.28

**Q.** Which logP does the source give for `Cc1ccc(NC(=O)c2[nH]nc(C)c2[N+](=O)[O-])cc1` here?
**A.** 2.34

**Q.** With `CN(C)N=Nc1ccc(C(F)(F)F)cc1` as the molecule, how does the logP read?
**A.** 4

**Q.** For `CNc1nc(Cl)c(SC)c(N2CCN(C)CC2)n1`, which logP is on record?
**A.** 2.99

**Q.** Which logP does the source give for `COc1cccc(C(=O)NP(=O)(N2CC2)N2CC2)c1` here?
**A.** 0.86

**Q.** Which logP does the source give for `Oc1ccc(I)c2cccnc12` here?
**A.** 3.27

**Q.** Which logP does the source give for `O=[N+]([O-])c1ccc2ccc3cccc4ccc1c2c34` here?
**A.** 5.06

**Q.** With `O=C(O)C(OCc1ccc(Cl)cc1)c1ccccc1` (stereo not given) as the molecule, how does the logP read?
**A.** 2.6

**Q.** For `OCC1CC(F)C(n2cnc3c(Br)ncnc32)O1` (stereo not given), which logP is on record?
**A.** 0.44

**Q.** Which logP does the source give for `CCCCOc1cccc(NC(=O)OCCN2CCOCC2)c1` here?
**A.** 3.62

**Q.** With `CCNC(=O)C1(O)C(C)CC2C3CCC4=CC(=O)C=CC4(C)C3(F)C(O)CC21C` (stereo not given) as the molecule, how does the logP read?
**A.** 2.07

**Q.** For `COc1ccc2cc(C(C)C(=O)OCC(N)=O)ccc2c1` (stereo not given), which logP is on record?
**A.** 2.06

**Q.** With `O=C(Cn1ccnc1[N+](=O)[O-])NCCCO` as the molecule, how does the logP read?
**A.** -1.27

**Q.** With `C=C1C(=O)OC2CC(C)C3C=CC(=O)C3(C)C(OC(=O)CCCC(=O)OC3C4C(=C)C(=O)OC4CC(C)C4C=CC(=O)C43C)C12` (stereo not given) as the molecule, how does the logP read?
**A.** 1.37

From the OPERA property sets (Mansouri et al. 2018)
